Data on two compounds can be found in patent US20060088882A1, “Methods for the treatment or prevention of obesity” (priority 2002, published 2006).

The target in one test is VEGFR1 (Homo sapiens, UniProt P17948). The note with it: cited from earlier work.
Another test deals with VEGFR2 (Homo sapiens, UniProt P35968). To be noted: cited from earlier work.
A further test concerns 3T3-F442A preadipocytes. The test is described as follows: In vitro differentiation of 3T3-F442A preadipocytes (Oil Red O staining). It is filed as cell-based, mouse. How it is done: FIGS. 5A-5C are pictures of preadipocyte differentiation. FIG. 5A is a transillumination image of differentiated adipocytes in vitro. FIG. 5B is a fluorescence image of differentiated adipocytes in vivo. FIG. 5C is a picture showing the effect of PPARγ inhibition on adipogenesis. Preadipocytes (1×10^5 cells) were plated in a 6-well plate and transfected at a multiplicity of infection of 10^4 plaque forming units/cell using mock- (upper panels) or PPARγ-DN adenovirus (lower panels) and differentiation was promoted by using media containing 10% FBS.
FIG. 7A and 7B illustrate the effect of VEGF on preadipocyte differentiation and proliferation. To investigate the effects of VEGF on the in vitro differentiation of preadipocytes, 3T3-F442A cells were grown to confluence in media supplemented with calf serum (FCS, maintenance media), and exposed to increasing concentrations of murine recombinant VEGF164 (R&D Systems, Minneapolis, Minn.) from 0-100 ng/ml. […] Adipocyte differentiation was assessed by Oil Red O staining.
The bar indicates 50 μm. […] MTT assay was performed at day 4. […] Data are normalized to the control condition (FBS). Error bars represent standard error.
VEGFR2 expression was undetectable in the preadipocytes.

Test [1] concerns preadipocytes. To be noted: conditioned media from endothelial cells cultured in the presence of VEGF and IgG; MTT assay.
Procedure: For MTT assays, mouse recombinant VEGF (50 ng/ml) and PBS, and rat IgG (1 μg/ml) were used. MTT assay was performed at day 4. The optical density values were normalized to that of the PBS treated cells and were used as a measure of viability (FIGS. 8B and 8C). MTT assay for preadipocytes after four days of culture with endothelial conditioned media. “FBS” denotes non-conditioned culture media with 10% FBS; “SN” denotes supernatant, endothelial conditioned media cultured with 10% FBS but no other additives; “SN/VEGF/IgG” denotes endothelial conditioned media cultured with 10% FBS, VEGF (50 ng/ml) and non-specific IgG (5 μg/ml). Data are normalized to the control condition (FBS). Error bars represent standard error.
To assess the paracrine effects of VEGF on cell proliferation, preadipocytes were plated as described for FIG. 8B with conditioned media from endothelial cells cultured in the presence of VEGF and IgG. At day 5, the assay was perform as described, and the optical density for the cells cultured in non-conditioned media was used as a measure of viability.
In test [2] the test system is preadipocytes. To be noted: conditioned media from endothelial cells cultured in the presence of VEGF (50 ng/ml); day 11; normalized to SN control. An excerpt:
Error bars represent standard error.
The media was changed every other day.

The test system of test [3] is preadipocytes. The note with it: exogenous VEGF added to culture media, doses as high as 100 ng/ml; MTT assay. A general note: Formazan colour is commonly taken as a measure of viable cells.
Procedure: For proliferation assays, 500 preadipocytes and fibroblasts were plated in 96 well plates, and mouse recombinant VEGF164 (50 ng/ml) and PBS were added (FIG. 7B). An MTT assay was performed at day 4, when the cells were still subconfluent in all wells. Culture media were changed with 100 μl of fresh media, and 10 μl of sterile tetrazolium salt, MTT (3[4,5-dimethylthiazol-2-yl]-2,5-diphenyl-tetrazolium bromide, Sigma) was added in each well and incubated for four hours at 37° C. Finally, 100 μl of 10% SDS were added, and after incubation at 37° C. overnight, the plate was read at 490 nm. The optical density values were normalized to that of the PBS treated cells and used as a measure of viability.
For MTT assays, mouse recombinant VEGF (50 ng/ml) and PBS, and rat IgG (1 μg/ml) were used. MTT assay was performed at day 4. The optical density values were normalized to that of the PBS treated cells and were used as a measure of viability (FIGS. 8B and 8C). MTT assay for preadipocytes after four days of culture with endothelial conditioned media. “FBS” denotes non-conditioned culture media with 10% FBS; “SN” denotes supernatant, endothelial conditioned media cultured with 10% FBS but no other additives; “SN/VEGF/IgG” denotes endothelial conditioned media cultured with 10% FBS, VEGF (50 ng/ml) and non-specific IgG (5 μg/ml). Data are normalized to the control condition (FBS). […]

VEGFR2, sequence (P35968 20-1356, species assumed): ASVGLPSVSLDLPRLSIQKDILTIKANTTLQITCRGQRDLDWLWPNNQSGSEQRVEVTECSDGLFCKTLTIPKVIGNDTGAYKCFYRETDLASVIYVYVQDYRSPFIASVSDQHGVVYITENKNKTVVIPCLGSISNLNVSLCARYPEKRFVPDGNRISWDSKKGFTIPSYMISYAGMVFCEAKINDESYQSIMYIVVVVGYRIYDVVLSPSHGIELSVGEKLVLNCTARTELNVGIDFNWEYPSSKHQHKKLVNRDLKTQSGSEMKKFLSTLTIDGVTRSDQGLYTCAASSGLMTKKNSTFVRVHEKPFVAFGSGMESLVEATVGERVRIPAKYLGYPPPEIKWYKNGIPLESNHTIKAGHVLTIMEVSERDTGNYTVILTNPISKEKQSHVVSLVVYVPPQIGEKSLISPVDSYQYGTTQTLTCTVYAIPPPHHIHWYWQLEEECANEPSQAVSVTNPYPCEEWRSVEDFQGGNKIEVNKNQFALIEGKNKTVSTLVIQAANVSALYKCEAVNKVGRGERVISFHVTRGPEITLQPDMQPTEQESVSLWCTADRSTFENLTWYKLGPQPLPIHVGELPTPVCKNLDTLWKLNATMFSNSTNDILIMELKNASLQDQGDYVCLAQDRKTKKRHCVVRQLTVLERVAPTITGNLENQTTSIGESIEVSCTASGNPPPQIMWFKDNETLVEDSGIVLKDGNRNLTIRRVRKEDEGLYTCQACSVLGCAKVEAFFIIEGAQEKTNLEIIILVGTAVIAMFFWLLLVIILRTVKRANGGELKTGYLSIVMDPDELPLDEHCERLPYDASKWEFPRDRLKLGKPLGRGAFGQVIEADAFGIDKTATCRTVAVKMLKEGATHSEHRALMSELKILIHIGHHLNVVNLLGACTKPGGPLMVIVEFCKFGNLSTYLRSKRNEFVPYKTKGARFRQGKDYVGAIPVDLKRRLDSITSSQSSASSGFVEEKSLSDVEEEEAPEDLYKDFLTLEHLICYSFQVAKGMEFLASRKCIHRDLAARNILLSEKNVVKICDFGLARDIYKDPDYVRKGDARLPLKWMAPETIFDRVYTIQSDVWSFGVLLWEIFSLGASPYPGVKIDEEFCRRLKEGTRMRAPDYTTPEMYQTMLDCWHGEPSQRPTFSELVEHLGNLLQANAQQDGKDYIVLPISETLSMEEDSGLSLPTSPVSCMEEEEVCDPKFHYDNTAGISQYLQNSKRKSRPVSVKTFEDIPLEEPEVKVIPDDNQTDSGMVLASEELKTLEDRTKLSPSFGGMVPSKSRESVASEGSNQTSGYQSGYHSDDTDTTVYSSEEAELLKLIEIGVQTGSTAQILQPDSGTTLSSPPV
VEGFR1, sequence (P17948 27-1338, species assumed): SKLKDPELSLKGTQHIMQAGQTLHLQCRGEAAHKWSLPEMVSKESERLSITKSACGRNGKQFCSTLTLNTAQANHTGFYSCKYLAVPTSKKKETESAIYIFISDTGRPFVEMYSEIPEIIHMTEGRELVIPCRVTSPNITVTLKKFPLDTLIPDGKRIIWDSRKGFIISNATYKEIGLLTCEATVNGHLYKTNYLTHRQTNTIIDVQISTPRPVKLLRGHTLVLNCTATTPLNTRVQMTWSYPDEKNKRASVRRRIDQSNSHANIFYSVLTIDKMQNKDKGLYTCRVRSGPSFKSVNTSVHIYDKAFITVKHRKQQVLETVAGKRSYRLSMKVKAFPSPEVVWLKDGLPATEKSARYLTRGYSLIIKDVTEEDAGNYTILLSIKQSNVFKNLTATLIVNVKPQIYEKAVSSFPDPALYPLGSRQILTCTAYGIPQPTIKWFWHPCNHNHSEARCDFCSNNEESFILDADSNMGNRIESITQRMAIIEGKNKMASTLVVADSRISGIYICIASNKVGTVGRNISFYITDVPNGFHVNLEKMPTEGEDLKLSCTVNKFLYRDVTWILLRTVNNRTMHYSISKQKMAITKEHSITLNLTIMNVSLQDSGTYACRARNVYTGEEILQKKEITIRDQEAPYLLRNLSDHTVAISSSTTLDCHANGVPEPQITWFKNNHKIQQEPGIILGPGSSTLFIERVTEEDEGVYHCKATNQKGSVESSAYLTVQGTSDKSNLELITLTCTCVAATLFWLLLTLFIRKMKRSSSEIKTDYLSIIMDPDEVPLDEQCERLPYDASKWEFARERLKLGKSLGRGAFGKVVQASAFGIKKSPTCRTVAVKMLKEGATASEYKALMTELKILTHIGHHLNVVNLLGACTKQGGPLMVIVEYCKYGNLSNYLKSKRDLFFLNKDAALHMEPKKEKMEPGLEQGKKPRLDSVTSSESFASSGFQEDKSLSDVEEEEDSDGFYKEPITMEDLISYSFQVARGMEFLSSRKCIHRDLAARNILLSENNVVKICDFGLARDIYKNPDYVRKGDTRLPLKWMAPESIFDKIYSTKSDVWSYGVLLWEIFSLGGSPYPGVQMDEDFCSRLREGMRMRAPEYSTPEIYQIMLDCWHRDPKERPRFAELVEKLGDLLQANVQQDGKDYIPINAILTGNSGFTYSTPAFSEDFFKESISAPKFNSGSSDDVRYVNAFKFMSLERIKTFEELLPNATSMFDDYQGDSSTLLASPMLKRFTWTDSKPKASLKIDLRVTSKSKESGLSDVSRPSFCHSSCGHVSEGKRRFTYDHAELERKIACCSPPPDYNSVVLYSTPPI

Regarding `CCCNC(=O)Nc1ccc(Oc2ncnc3cc(OC)c(OC)cc23)cc1Cl` [KRN633], the “inhibition of VEGFR1” value at VEGFR1 is listed as “inhibits”. The “inhibition of VEGFR2” value on VEGFR2 is on record as “inhibits”.
Turning to VEGF, in the test with 3T3-F442A preadipocytes (differentiation media (10% FBS), VEGF 0-100 ng/ml or 50 ng/ml, Oil Red O staining), the “differentiation rate of preadipocytes” value is reported as “did not increase the differentiation rate”. Also, in the test with 3T3-F442A preadipocytes (exogenous VEGF added to culture media, doses as high as 100 ng/ml), the “adipose cell differentiation in vitro” value is “not significantly affected”. Further, the “induction of differentiation in preadipocytes” value in the test with 3T3-F442A preadipocytes (maintenance media (10% calf serum), VEGF 0-100 ng/ml or 50 ng/ml, Oil Red O staining) is listed as “did not induce differentiation”. Moreover, the preadipocyte survival/proliferation result in the test with preadipocytes [1] was “increased preadipocyte survival/proliferation”. Further, in the test on preadipocytes [2], the “aP2 expression (differentiation of preadipocytes)” value is reported as “almost three-fold increase”. For the same compound, the “adipose cell proliferation and survival in vitro” value in the test on preadipocytes [3] is “not significantly affected”.
